Measured values: patent publication US20250113823A1, “Arthropod Control Compositions” (priority 2022, published 2025)
Like-named read-outs stand apart in the source and are kept apart here.

System: Aedes aegypti
Assay: Warm Body assay, mosquito landings on treated warm body
Type: in vivo
Settings: for pest or weed control at 3.2 µg/mL / pest or weed control at 7.1 µg/mL / pest or weed control at 16 µg/mL / pest or weed control at 35.7 µg/mL / pest or weed control at 53 µg/mL / pest or weed control at 80 µg/mL / pest or weed control at 119 µg/mL / pest or weed control at 178 µg/mL / pest or weed control at 267 µg/mL / pest or weed control at 400 µg/mL / pest or weed control at 598 µg/mL / pest or weed control at 890 µg/mL / pest or weed control at 2000 µg/mL / pest or weed control at 4470 µg/mL / pest or weed control at 10000 µg/mL / pest or weed control at 1 % / pest or weed control at 0.04 % / pest or weed control at 0.0016 %: Aedes aegypti; for pest or weed control at 3.2 µg/mL: 0.0032 mg/mL (Table 1); for pest or weed control at 3.2 µg/mL / pest or weed control at 7.1 µg/mL / pest or weed control at 16 µg/mL / pest or weed control at 35.7 µg/mL / pest or weed control at 53 µg/mL / pest or weed control at 80 µg/mL / pest or weed control at 119 µg/mL / pest or weed control at 178 µg/mL / pest or weed control at 267 µg/mL / pest or weed control at 400 µg/mL / pest or weed control at 598 µg/mL / pest or weed control at 890 µg/mL / pest or weed control at 2000 µg/mL / pest or weed control at 4470 µg/mL / pest or weed control at 10000 µg/mL: read-out: Percentage of repellence of mosquitoes Aedes aegypti landing on the warm body; for pest or weed control at 7.1 µg/mL: 0.0071 mg/mL (Table 1); for pest or weed control at 35.7 µg/mL: 0.0357 mg/mL (Table 1); for pest or weed control at 53 µg/mL: 0.053 mg/mL (Table 1); for pest or weed control at 80 µg/mL: 0.08 mg/mL (Table 1); for pest or weed control at 119 µg/mL: 0.119 mg/mL (Table 1); for pest or weed control at 178 µg/mL: 0.178 mg/mL (Table 1); for pest or weed control at 267 µg/mL: 0.267 mg/mL (Table 1); for pest or weed control at 598 µg/mL: 0.598 mg/mL (Table 1); for pest or weed control at 890 µg/mL: 0.89 mg/mL (Table 1); for pest or weed control at 2000 µg/mL: 2 mg/mL (Table 1); for pest or weed control at 4470 µg/mL: 4.47 mg/mL (Table 1); for pest or weed control at 1 % / mosquito landing within the two minutes of experiments: highest tested concentration, 1% (Table 3); for pest or weed control at 1 % / pest or weed control at 0.04 %: read-out: repellence; for pest or weed control at 0.04 %: intermediate concentration of 0.04% (Table 3); for pest or weed control at 0.0016 %: lowest concentration of 0.0016% (Table 3), read-out: reduce the number of mosquito landings
Method: The arthropod controlling effect according to the present invention is determined on mosquitoes using an adapted Warm Body assay as defined in Kröber T, Kessler S, Frei J, Bourquin M, Guerin PM. An in vitro assay for testing mosquito controlling compounds employing a warm body and carbon dioxide as a behavioral activator. J Am Mosq Control Assoc. 2010; 26: 381-386. Further information is provided in the accompanying examples
The controlling effect, repellence & spatial repellence, according to the present invention is determined by testing the Warm Body assay against the yellow fever mosquito, Aedes aegypti Rockefeller strain. […] Observations of controlling efficacy were made on host-seeking females of uniform age, 5 to 10 days old selected as mentioned in the publication mentioned hereinabove. Tested hungry females had access to 10% sugar solution but were not blood-fed. Further information is provided in the accompanying examples.
The published protocol has been adapted in not manually counting the landing mosquitoes but automatically using an automatic counting software, the switch from Anopheles gambiae to A. aegypti led to a decrease of mosquitoes' number placed in the tested cage due to the size difference (i.e. 30 mosquitoes instead of 50) and to an increase of lighting as A. aegypti is a diurnal mosquitoes (i.e. 150 lux instead of 4 lux). Further information is provided in the accompanying examples. […]
The controlling effect according to the present invention was assessed using an adapted Warm Body assay as defined in Kröber T, Kessler S, Frei J, Bourquin M, Guerin P M. 2010. J Am Mosq Control Assoc. 26: 381-386. In this in-vitro assay the number of mosquito landing on a warm body, simulating an attractive host treated with the tested stimuli, was measured in order to assess the repellence effect.
The published protocol has been adapted as the switch from Anopheles gambiae to Aedes aegypti led to a decrease of mosquitoes placed in the tested cage due to the size difference (i.e. 30 mosquitoes instead of 50) and to an increase of lighting since A. aegypti is a diurnal mosquitoes (i.e. 150 lux instead of 4 lux).
On the sandblasted glass Petri dish covering the warm body (28.3 cm^2), 100 μL of the compounds diluted at different concentrations in ethanol was applied. The number of mosquito landing on the warm body was counted for each stimulus and pure ethanol (solvent) as control.

Structure (SMILES) | pest or weed control at 3.2 µg/mL | pest or weed control at 7.1 µg/mL | pest or weed control at 16 µg/mL (0.016 mg/mL (Table 1)) | pest or weed control at 35.7 µg/mL | pest or weed control at 53 µg/mL | pest or weed control at 80 µg/mL | pest or weed control at 119 µg/mL | pest or weed control at 178 µg/mL | pest or weed control at 267 µg/mL | pest or weed control at 400 µg/mL (0.4 mg/mL (Table 1)) | pest or weed control at 598 µg/mL | pest or weed control at 890 µg/mL | pest or weed control at 2000 µg/mL | pest or weed control at 4470 µg/mL | pest or weed control at 10000 µg/mL (10 mg/mL (Table 1)) | pest or weed control at 16 µg/mL (0.016 mg/mL (Table 3)) | pest or weed control at 400 µg/mL (0.4 mg/mL (Table 3)) | pest or weed control at 10000 µg/mL (10 mg/mL (Table 3)) | pest or weed control at 1 % | other results
CC=Cc1cc(OC)c(O)c(OC)c1 [compound 1124, 2,6-dimethoxy-4-[prop-1-enyl]phenol] | 26% | 40% | 62% | 0% | 48% | 84% | 35% | 66% | 59% | 78% | 69% | 78% | 95% | 85% | 98% | – | – | – | – | –
COc1ccc(O)c(OC)c1OC [compound 1204, 2,3,4-trimethoxyphenol] | – | – | – | – | – | – | – | – | – | – | – | – | – | – | – | 46% | 83% | 92% | > 90% | pest or weed control at 0.04 %: > 75%
CCCc1cc(OC)c(O)c(OC)c1 [compound 1502, 2,6-dimethoxy-4-propylphenol] | 0% | 0% | 32% | 0% | 61% | 0% | 14% | 94% | 94% | 88% | 94% | 99% | 96% | 100% | 96% | – | – | – | – | –
C=CC(C)CCCC(C)(C)OCC=Cc1ccc(O)c(OC)c1 (centres unmarked) [compound 1519, 4-{3-[(2,6-dimethyl-7-octen-2-yl)oxy]-1-propen-1-yl}-2-methoxyphenol] | – | – | – | – | – | – | – | – | – | – | – | – | – | – | – | 67% | 71% | 95% | > 90% | pest or weed control at 0.0016 %: > 50%
COc1cc(CO)cc(OC)c1OC [compound 1968, (3,4,5-trimethoxyphenyl)methanol] | – | – | – | – | – | – | – | – | – | – | – | – | – | – | – | 23% | 38% | 100% | > 90% | mosquito landing within the two minutes of experiments: protect the attractive stimulus for any mosquito landing
COc1ccc(CCC(=O)O)cc1OC [compound 1561, 3-(3,4-dimethoxyphenyl)propanoic acid] | – | – | – | – | – | – | – | – | – | – | – | – | – | – | – | 9% | 37% | 84% | – | –
COc1cc(C2CC=C(C)CO2)ccc1O (centres unmarked) [compound 1478, 2-methoxy-4-(5-methyl-3,6-dihydro-2H-pyran-2-yl)phenol] | – | – | – | – | – | – | – | – | – | – | – | – | – | – | – | 0% | 76% | 73% | – | pest or weed control at 0.04 %: > 75%
CC=Cc1cc(OC)c(OC)c(OC)c1 [compound 1126, 1,2,3-trimethoxy-5-prop-1-enylbenzene] | – | – | – | – | – | – | – | – | – | – | – | – | – | – | – | 31% | 71% | 90% | > 90% | –
COc1cc(C=NCCN=Cc2cc(OC)c(OC)c(OC)c2)cc(OC)c1OC [compound 1980, 1-(3,4,5-trimethoxyphenyl)-N-[2-[(3,4,5-trimethoxyphenyl)methylideneamino]ethyl]methanimine] | 53% | 57% | 34% | 32% | 77% | 92% | 75% | 67% | 84% | 81% | 88% | 63% | 86% | 71% | 96% | – | – | – | – | –
COc1cc(C(C)OC)ccc1O (centres unmarked) [compound 1480, 2-methoxy-4-(1-methoxyethyl)phenol] | – | – | – | – | – | – | – | – | – | – | – | – | – | – | – | 66% | 61% | 100% | > 90% | pest or weed control at 0.0016 %: > 50%; mosquito landing within the two minutes of experiments: protect the attractive stimulus for any mosquito landing
